These results are taken from PubChem BioAssay (NCI).

Among the test systems are MOLT-4 leukemia; OVCAR-3 ovarian; U251 CNS; HCT-15 colon; NCI-H522 lung; HCC-2998 colon; SN12C renal; SF-295 CNS; M14 melanoma; OVCAR-4 ovarian.
Common to all, as to assay: DTP human tumour cell line panel, 48 h

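Values below derive from 48-hour exposures of cells grown in 96-well plates, with endpoints linearly interpolated between the two concentrations bracketing the appropriate inhibition level. GI50: concentration for 50% inhibition of growth. TGI: total growth inhibition.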 Some results are limits rather than exact numbers.

As for `CC(=O)Nc1ccc(/C=C/C(=O)c2sc(-c3cccnc3)nc2C)cc1`, the TGI in the assay on MOLT-4 leukemia, in the assay on OVCAR-3 ovarian, in the assay with U251 CNS, in the assay on HCT-15 colon, in the assay on NCI-H522 lung and in the assay with HCC-2998 colon was > 100 µM throughout. The TGI with SN12C renal and with SF-295 CNS was > 100 µM throughout.

For `O=C(O)CCNCC(=O)O`, the TGI in the assay on MOLT-4 leukemia, with OVCAR-3 ovarian, in the assay on U251 CNS, in the assay on HCT-15 colon, in the assay on M14 melanoma and in the assay on NCI-H522 lung was > 100 µM each time. In addition, the TGI in the assay with SN12C renal and in the assay with SF-295 CNS was > 100 µM throughout.

On to `O=C(NCCCCN1CCOCC1)c1cc2ccccc2o1`, for which the GI50 with OVCAR-3 ovarian, in the assay on U251 CNS, in the assay with OVCAR-4 ovarian, with HCT-15 colon, in the assay on M14 melanoma and in the assay on NCI-H522 lung was > 100 µM each time. Further, the GI50 in the assay with HCC-2998 colon, in the assay on SN12C renal and in the assay on SF-295 CNS was > 100 µM in each case. Moreover, the TGI in the assay with OVCAR-3 ovarian, with U251 CNS, with OVCAR-4 ovarian, in the assay on HCT-15 colon, in the assay on M14 melanoma and with NCI-H522 lung was > 100 µM each time. The TGI in the assay with HCC-2998 colon, in the assay on SN12C renal and in the assay with SF-295 CNS was > 100 µM throughout.

With `Cc1c(C)n(CCCN2CCN(C)CC2)c2ccc(Oc3cccc(C(=O)N4CCN(CCc5ccc(F)cc5)CC4)c3)cc12`, the GI50 is 1.82 µM in the assay with OVCAR-3 ovarian; 1.66 µM in the assay with U251 CNS; 1.84 µM with OVCAR-4 ovarian; 1.59 µM in the assay on HCT-15 colon; 1.81 µM with HCC-2998 colon; 1.54 µM in the assay on SN12C renal. The GI50 in the assay with SF-295 CNS is 1.85 µM. For the same molecule, the TGI was 3.39 µM in the assay with OVCAR-3 ovarian; 3.28 µM in the assay on U251 CNS; 3.92 µM in the assay on OVCAR-4 ovarian; 3.09 µM in the assay on HCT-15 colon; 3.37 µM in the assay on HCC-2998 colon; 3.09 µM in the assay on SN12C renal. In the assay with SF-295 CNS, this molecule registered a TGI of 3.33 µM.

With `Cc1nc2sccn2c1C(=O)NN`, the TGI in the assay on MOLT-4 leukemia, in the assay on OVCAR-3 ovarian, in the assay on U251 CNS, in the assay with HCT-15 colon, in the assay with NCI-H522 lung and in the assay on HCC-2998 colon was > 100 µM throughout. In addition, the TGI in the assay on SN12C renal and in the assay on SF-295 CNS was > 100 µM each time.

For the molecule `CN(Cc1ccccc1)Cn1ccnc1`, the TGI is > 100 µM in the assay with MOLT-4 leukemia; > 100 µM in the assay on OVCAR-3 ovarian; > 100 µM with U251 CNS; > 100 µM in the assay on OVCAR-4 ovarian; > 100 µM in the assay with HCT-15 colon; 39.6 µM with M14 melanoma. For the same molecule, the total growth inhibition concentration (TGI) in the assay with NCI-H522 lung, in the assay with SN12C renal and in the assay with SF-295 CNS was > 100 µM in each case.

Turning to `O=C(O)c1cc(-c2ccc3cc4c(cc3c2)OCO4)nc2ccccc12`, the TGI with MOLT-4 leukemia, with OVCAR-3 ovarian, in the assay with U251 CNS, in the assay on OVCAR-4 ovarian, in the assay on HCT-15 colon and in the assay with M14 melanoma was > 100 µM each time. Further, the concentration for total growth inhibition (TGI) with NCI-H522 lung, with SN12C renal and in the assay with SF-295 CNS was > 100 µM in each case.

Take `Cc1nc([N+](=O)[O-])cn1-c1nc2ccccn2c1[N+](=O)[O-]`: the TGI with OVCAR-3 ovarian, with U251 CNS, in the assay with OVCAR-4 ovarian, with HCT-15 colon, with M14 melanoma and in the assay with NCI-H522 lung was > 100 µM each time. For the same molecule, the concentration for total growth inhibition (TGI) in the assay with HCC-2998 colon, in the assay on SN12C renal and in the assay with SF-295 CNS was > 100 µM each time.

`CCOC(=O)c1cc(C(=O)c2ccc(OC)cc2)n2ccc(/C=C/c3cc[n+](CC(=O)c4ccc(OC)cc4)cc3)cc12`: the GI50 in the assay on MOLT-4 leukemia was 1.91 µM; in the assay with OVCAR-3 ovarian it was 1.52 µM; with U251 CNS it was 1.68 µM; in the assay with OVCAR-4 ovarian, 1.26 µM; with HCT-15 colon, 5.67 µM; in the assay on M14 melanoma, 1.77 µM. In the assay on SF-295 CNS, the GI50 is > 100 µM. Also, the total growth inhibition concentration (TGI) is 5.53 µM in the assay with MOLT-4 leukemia; 3 µM in the assay with OVCAR-3 ovarian; 4.57 µM in the assay on U251 CNS; 2.94 µM in the assay with OVCAR-4 ovarian; > 100 µM in the assay on HCT-15 colon; 3.8 µM in the assay on M14 melanoma. Moreover, the TGI in the assay with SF-295 CNS was > 100 µM.

`NNC(=O)C(=O)N/N=C(\CCCC(=O)Nc1ccc(Cl)cc1)CC(=O)c1ccc(F)cc1`: the TGI in the assay on MOLT-4 leukemia, with OVCAR-3 ovarian, with U251 CNS, with OVCAR-4 ovarian, in the assay with M14 melanoma and in the assay with HCC-2998 colon was > 100 µM in each case. In addition, the total growth inhibition concentration (TGI) in the assay on SN12C renal and in the assay with SF-295 CNS was > 100 µM throughout.

As for `O=C1NC(=C(Cl)Cl)/C(=N/S(=O)(=O)N2CCCCC2)N1`, the GI50 with OVCAR-3 ovarian is 2.09 µM; with U251 CNS, 1.71 µM; with OVCAR-4 ovarian, 1.8 µM; in the assay with HCT-15 colon, 1.82 µM; in the assay on M14 melanoma, 2.06 µM; with NCI-H522 lung it was 1.59 µM. The GI50 was 2.28 µM in the assay on HCC-2998 colon, 1.7 µM in the assay with SN12C renal and 5.14 µM in the assay with SF-295 CNS. In addition, the TGI with OVCAR-3 ovarian came out at 3.78 µM; in the assay on U251 CNS it was 3.12 µM; in the assay on OVCAR-4 ovarian, 3.47 µM; with HCT-15 colon, 3.91 µM; with M14 melanoma it was 4.54 µM; with NCI-H522 lung it was 3.39 µM. Moreover, the total growth inhibition concentration (TGI) is 5.22 µM with HCC-2998 colon, 3.14 µM in the assay on SN12C renal and 17.3 µM in the assay with SF-295 CNS.

Regarding `COc1ccc(C(=O)C(CN(C)C)CN(C)C)cc1`, the GI50 was 1.29 µM with OVCAR-3 ovarian; 14.2 µM in the assay on U251 CNS; 2.47 µM in the assay with HCT-15 colon; 3.53 µM in the assay on M14 melanoma; 15.9 µM in the assay on HCC-2998 colon; 12.6 µM with SN12C renal. For the same molecule, the GI50 with SF-295 CNS is 21.2 µM. Besides, the TGI with OVCAR-3 ovarian is 2.57 µM; in the assay with U251 CNS, 34.1 µM; in the assay on HCT-15 colon, 6.85 µM; in the assay on M14 melanoma, 13.5 µM; in the assay with HCC-2998 colon, 30 µM; with SN12C renal, 56.4 µM. In addition, in the assay with SF-295 CNS, the TGI was determined as 52.2 µM.
